Experiments:
Type in all cases: cell-based
Conditions in all cases: compounds at 50 nM and 500 nM
GSPT1 = molecular target: T1, GSPT1 (Homo sapiens, UniProt P15170+Q96SW2); experiment: Western blot degradation of GSPT1 in hPBMCs (24 h)
T1 construct: The supernatant was aspirated as the extracted total cell protein; endogenous in cells; host or cells: human peripheral blood mononuclear cells (hPBMCs)
Outline: (§1)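 Thawed human PBMCs, 1×10^6 cells/mL; cpd 50 nM or 500 nM, 24 h; RIPA lysis, BCA, SDS-PAGE, NC transfer, immunoblot. Readout: grayscale/internal control → % remaining; degradation = 1 − remaining.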

IKZF3 = molecular target: T2, IKZF3 (Homo sapiens, UniProt Q96SW2+Q9UKT9); experiment: Western blot degradation of IKZF3 in hPBMCs (24 h)
T2 construct: The supernatant was aspirated as the extracted total cell protein; endogenous in cells; host or cells: human peripheral blood mononuclear cells (hPBMCs)
Outline: as §1

IKZF2 = molecular target: T3, IKZF2 (Homo sapiens, UniProt Q96SW2+Q9UKS7); experiment: Western blot degradation of IKZF2 in hPBMCs (24 h)
T3 construct: The supernatant was aspirated as the extracted total cell protein; endogenous in cells; host or cells: human peripheral blood mononuclear cells (hPBMCs)
Outline: as §1

CK1α = molecular target: T4, CK1α (Homo sapiens, UniProt P48729+Q96SW2); experiment: Western blot degradation of CK1α in hPBMCs (24 h)
T4 construct: The supernatant was aspirated as the extracted total cell protein; endogenous in cells; host or cells: human peripheral blood mononuclear cells (hPBMCs)
Outline: as §1

WEE1 = molecular target: T5, WEE1 (Homo sapiens, UniProt P30291+Q96SW2); experiment: Western blot degradation of WEE1 in hPBMCs (24 h)
T5 construct: The supernatant was aspirated as the extracted total cell protein; endogenous in cells; host or cells: human peripheral blood mononuclear cells (hPBMCs)
Outline: as §1

IKZF1 = molecular target: T6, IKZF1 (Homo sapiens, UniProt Q13422+Q96SW2); experiment: Western blot degradation of IKZF1 in hPBMCs (24 h)
T6 construct: The supernatant was aspirated as the extracted total cell protein; endogenous in cells; host or cells: human peripheral blood mononuclear cells (hPBMCs)
Outline: as §1

T6 sequence (Q13422 whole entry): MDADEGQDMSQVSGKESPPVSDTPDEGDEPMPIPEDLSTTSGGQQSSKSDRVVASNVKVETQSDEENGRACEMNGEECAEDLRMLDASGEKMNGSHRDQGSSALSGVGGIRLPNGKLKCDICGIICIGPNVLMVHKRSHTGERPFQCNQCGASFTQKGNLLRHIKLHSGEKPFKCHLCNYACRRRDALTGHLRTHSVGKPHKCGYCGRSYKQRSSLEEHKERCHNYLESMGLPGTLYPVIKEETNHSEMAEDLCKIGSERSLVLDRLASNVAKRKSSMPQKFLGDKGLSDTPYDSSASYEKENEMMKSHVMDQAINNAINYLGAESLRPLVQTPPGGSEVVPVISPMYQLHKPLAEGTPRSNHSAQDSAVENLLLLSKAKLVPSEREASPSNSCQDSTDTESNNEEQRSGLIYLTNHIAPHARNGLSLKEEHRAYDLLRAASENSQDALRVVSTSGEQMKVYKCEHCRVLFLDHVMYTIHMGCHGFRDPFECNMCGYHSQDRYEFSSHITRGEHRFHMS
T6 sequence (Q96SW2 whole entry): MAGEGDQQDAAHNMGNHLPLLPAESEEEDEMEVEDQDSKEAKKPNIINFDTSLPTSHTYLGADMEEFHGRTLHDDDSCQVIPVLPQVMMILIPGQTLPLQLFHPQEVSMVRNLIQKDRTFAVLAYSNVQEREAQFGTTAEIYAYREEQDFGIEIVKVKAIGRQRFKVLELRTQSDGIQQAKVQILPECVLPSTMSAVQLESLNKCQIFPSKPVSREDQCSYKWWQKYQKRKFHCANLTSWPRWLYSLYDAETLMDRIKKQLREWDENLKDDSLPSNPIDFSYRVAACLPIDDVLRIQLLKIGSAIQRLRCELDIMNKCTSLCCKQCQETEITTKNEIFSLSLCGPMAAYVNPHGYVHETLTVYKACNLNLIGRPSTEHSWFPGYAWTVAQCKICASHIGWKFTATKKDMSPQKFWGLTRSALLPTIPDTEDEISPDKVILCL
T6 sequence (Q16531 whole entry partner): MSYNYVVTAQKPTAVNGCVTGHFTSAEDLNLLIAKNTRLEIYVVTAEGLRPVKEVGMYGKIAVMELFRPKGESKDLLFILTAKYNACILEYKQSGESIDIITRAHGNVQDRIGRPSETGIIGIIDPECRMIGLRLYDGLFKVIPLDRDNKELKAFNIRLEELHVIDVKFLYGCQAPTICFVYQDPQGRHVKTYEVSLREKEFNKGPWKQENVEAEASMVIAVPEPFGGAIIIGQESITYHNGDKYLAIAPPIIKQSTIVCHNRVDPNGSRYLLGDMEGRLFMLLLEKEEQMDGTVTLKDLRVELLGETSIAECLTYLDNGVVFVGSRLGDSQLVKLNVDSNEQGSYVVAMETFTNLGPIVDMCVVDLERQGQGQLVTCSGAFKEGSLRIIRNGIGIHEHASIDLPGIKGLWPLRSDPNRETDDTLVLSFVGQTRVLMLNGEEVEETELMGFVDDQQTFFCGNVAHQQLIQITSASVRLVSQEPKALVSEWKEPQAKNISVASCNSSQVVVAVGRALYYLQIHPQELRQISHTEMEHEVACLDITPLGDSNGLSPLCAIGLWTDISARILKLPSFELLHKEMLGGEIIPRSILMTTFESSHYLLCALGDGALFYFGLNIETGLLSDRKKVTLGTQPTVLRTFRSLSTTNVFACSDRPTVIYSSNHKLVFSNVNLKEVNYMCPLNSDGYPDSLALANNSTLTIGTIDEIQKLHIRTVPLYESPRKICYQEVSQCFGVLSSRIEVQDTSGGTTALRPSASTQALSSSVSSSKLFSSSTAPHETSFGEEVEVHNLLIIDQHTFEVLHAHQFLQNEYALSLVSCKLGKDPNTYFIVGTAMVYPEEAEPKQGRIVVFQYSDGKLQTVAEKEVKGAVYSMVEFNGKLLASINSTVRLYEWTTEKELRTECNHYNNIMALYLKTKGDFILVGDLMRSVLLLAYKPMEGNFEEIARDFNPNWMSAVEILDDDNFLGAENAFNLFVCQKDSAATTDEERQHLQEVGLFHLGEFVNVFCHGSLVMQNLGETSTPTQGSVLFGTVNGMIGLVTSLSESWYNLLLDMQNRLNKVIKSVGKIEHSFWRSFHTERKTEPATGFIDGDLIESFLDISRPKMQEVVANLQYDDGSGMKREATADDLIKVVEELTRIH
T2 sequence (Q9UKT9 whole entry): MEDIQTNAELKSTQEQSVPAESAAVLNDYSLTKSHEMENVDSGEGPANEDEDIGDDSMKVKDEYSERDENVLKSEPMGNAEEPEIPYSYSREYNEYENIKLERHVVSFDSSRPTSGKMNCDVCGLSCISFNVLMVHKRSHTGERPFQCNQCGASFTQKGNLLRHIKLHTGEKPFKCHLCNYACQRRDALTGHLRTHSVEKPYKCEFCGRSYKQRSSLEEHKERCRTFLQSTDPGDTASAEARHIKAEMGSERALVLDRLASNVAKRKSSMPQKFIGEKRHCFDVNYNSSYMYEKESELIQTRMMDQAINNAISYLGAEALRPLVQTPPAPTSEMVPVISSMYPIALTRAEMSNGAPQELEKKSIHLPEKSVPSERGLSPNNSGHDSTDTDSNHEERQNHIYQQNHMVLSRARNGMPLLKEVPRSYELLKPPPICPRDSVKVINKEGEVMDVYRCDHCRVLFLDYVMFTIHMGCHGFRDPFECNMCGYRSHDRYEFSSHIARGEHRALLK
T2 sequence (Q96SW2 whole entry): as the sequence (Q96SW2 whole entry) above
T2 sequence (Q16531 whole entry partner): as the sequence (Q16531 whole entry partner) above
T5 sequence (P30291 whole entry): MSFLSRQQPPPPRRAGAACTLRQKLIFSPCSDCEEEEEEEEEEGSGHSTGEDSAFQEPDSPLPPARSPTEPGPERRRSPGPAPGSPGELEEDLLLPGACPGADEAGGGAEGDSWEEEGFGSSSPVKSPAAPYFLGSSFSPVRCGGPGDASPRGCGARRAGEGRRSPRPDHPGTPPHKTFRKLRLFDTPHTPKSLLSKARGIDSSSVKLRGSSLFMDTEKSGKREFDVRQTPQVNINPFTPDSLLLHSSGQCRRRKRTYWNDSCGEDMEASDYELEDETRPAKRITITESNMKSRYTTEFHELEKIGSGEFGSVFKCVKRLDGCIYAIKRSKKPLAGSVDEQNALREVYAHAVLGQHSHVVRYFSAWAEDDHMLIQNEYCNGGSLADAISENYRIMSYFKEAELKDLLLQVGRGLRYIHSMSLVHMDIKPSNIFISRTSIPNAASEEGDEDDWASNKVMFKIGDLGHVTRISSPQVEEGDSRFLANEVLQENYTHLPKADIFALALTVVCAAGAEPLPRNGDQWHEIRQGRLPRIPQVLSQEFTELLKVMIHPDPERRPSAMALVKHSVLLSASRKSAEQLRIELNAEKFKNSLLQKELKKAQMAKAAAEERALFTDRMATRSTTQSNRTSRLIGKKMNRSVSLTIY
T5 sequence (Q96SW2 whole entry): as the sequence (Q96SW2 whole entry) above
T5 sequence (Q16531 whole entry partner): as the sequence (Q16531 whole entry partner) above
T3 sequence (Q9UKS7 whole entry): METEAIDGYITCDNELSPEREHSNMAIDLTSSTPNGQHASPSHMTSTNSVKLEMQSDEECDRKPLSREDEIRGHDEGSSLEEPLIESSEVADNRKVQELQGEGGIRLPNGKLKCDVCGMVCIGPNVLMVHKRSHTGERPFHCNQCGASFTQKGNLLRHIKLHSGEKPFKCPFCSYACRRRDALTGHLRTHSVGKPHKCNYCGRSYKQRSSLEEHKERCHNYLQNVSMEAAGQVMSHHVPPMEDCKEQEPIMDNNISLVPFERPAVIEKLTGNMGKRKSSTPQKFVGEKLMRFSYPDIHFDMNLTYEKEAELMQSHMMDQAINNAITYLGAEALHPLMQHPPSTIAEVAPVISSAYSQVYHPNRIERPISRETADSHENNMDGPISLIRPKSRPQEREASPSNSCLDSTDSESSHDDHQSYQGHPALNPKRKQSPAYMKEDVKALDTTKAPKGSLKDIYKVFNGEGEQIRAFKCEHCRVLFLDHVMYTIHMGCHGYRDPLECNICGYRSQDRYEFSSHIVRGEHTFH
T3 sequence (Q96SW2 whole entry): as the sequence (Q96SW2 whole entry) above
T3 sequence (Q16531 whole entry partner): as the sequence (Q16531 whole entry partner) above
T1 sequence (P15170 whole entry): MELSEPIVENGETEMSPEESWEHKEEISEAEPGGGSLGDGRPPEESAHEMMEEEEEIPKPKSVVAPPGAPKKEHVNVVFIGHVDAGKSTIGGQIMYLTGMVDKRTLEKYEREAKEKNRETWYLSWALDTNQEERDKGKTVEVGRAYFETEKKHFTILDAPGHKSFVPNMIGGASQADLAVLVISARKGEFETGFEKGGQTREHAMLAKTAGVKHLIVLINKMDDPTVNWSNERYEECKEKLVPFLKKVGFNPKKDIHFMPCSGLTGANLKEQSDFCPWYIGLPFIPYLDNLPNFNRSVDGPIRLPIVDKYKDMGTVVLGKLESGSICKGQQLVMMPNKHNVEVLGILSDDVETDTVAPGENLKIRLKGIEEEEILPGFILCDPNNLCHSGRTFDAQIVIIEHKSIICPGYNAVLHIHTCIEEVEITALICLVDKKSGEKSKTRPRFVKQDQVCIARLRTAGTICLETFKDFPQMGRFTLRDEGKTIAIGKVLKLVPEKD
T1 sequence (Q96SW2 whole entry): as the sequence (Q96SW2 whole entry) above
T1 sequence (Q16531 whole entry partner): as the sequence (Q16531 whole entry partner) above

SMILES | GSPT1 substrate protein remaining % (GSPT1) | IKZF3 substrate protein remaining % (IKZF3) | IKZF2 substrate protein remaining % (IKZF2) | CK1α substrate protein remaining % (CK1α) | WEE1 substrate protein remaining % (WEE1) | IKZF1 substrate protein remaining % (IKZF1)
O=C1CCN(N2Cc3cc(CN4CCN(c5ccc(F)c(F)c5)CC4)ccc3C2=O)C(=O)N1 [GT-06781, 1-(5-((4-(3,4-difluorophenyl)piperazin-1-yl)methyl)-1-oxoisoindolin-2-yl)dihydropyrimidine-2,4(1H,3H)-dione] | A (0% ≤ substrate protein remaining % ≤80%) | B (80%< substrate protein remaining % ≤100%) | B (80%< substrate protein remaining % ≤100%) | A (0% ≤ substrate protein remaining % ≤80%) | B (80%< substrate protein remaining % ≤100%) | B (80%< substrate protein remaining % ≤100%)
O=C1CCN(N2Cc3cc(CN4CCN(c5cc(F)cc(F)c5)CC4)ccc3C2=O)C(=O)N1 [GT-06782, 1-(5-((4-(3,5-difluorophenyl)piperazin-1-yl)methyl)-1-oxoisoindolin-2-yl)dihydropyrimidine-2,4(1H,3H)-dione] | A (0% ≤ substrate protein remaining % ≤80%) | B (80%< substrate protein remaining % ≤100%) | B (80%< substrate protein remaining % ≤100%) | A (0% ≤ substrate protein remaining % ≤80%) | B (80%< substrate protein remaining % ≤100%) | B (80%< substrate protein remaining % ≤100%)
O=C1CCN(N2C(=O)c3ccc(CN4CCN(c5ccc(Cl)cc5)CC4)cc3C2=O)C(=O)N1 [GT-06783, 5-((4-(4-chlorophenyl)piperazin-1-yl)methyl)-2-(2,4-dioxotetrahydropyrimidin-1(2H)-yl)isoindoline-1,3-dione] | B (80%< substrate protein remaining % ≤100%) | A (0% ≤ substrate protein remaining % ≤80%) | B (80%< substrate protein remaining % ≤100%) | B (80%< substrate protein remaining % ≤100%) | B (80%< substrate protein remaining % ≤100%) | B (80%< substrate protein remaining % ≤100%)
O=C1CCN(N2C(=O)c3ccc(CN4CCN(c5ccc(Br)cc5)CC4)cc3C2=O)C(=O)N1 [GT-06784, 5-((4-(4-bromophenyl)piperazin-1-yl)methyl)-2-(2,4-dioxotetrahydropyrimidin-1(2H)-yl)isoindoline-1,3-dione] | B (80%< substrate protein remaining % ≤100%) | B (80%< substrate protein remaining % ≤100%) | B (80%< substrate protein remaining % ≤100%) | A (0% ≤ substrate protein remaining % ≤80%) | B (80%< substrate protein remaining % ≤100%) | B (80%< substrate protein remaining % ≤100%)
O=C1CCN(N2C(=O)c3ccc(CN4CCN(c5cccc(F)c5F)CC4)cc3C2=O)C(=O)N1 [GT-06793, 5-((4-(2,3-difluorophenyl)piperazin-1-yl)methyl)-2-(2,4-dioxotetrahydropyrimidin-1(2H)-yl)isoindoline-1,3-dione] | B (80%< substrate protein remaining % ≤100%) | B (80%< substrate protein remaining % ≤100%) | A (0% ≤ substrate protein remaining % ≤80%) | B (80%< substrate protein remaining % ≤100%) | B (80%< substrate protein remaining % ≤100%) | B (80%< substrate protein remaining % ≤100%)
O=C1CCN(N2C(=O)c3ccc(CN4CCN(c5c(F)cccc5F)CC4)cc3C2=O)C(=O)N1 [GT-06796, 5-((4-(2,6-difluorophenyl)piperazin-1-yl)methyl)-2-(2,4-dioxotetrahydropyrimidin-1(2H)-yl)isoindoline-1,3-dione] | B (80%< substrate protein remaining % ≤100%) | B (80%< substrate protein remaining % ≤100%) | B (80%< substrate protein remaining % ≤100%) | B (80%< substrate protein remaining % ≤100%) | A (0% ≤ substrate protein remaining % ≤80%) | B (80%< substrate protein remaining % ≤100%)
O=C1CCN(N2C(=O)c3ccc(CN4CCN(c5ccc(F)c(F)c5)CC4)cc3C2=O)C(=O)N1 [GT-06797, 5-((4-(3,4-difluorophenyl)piperazin-1-yl)methyl)-2-(2,4-dioxotetrahydropyrimidin-1(2H)-yl)isoindoline-1,3-dione] | B (80%< substrate protein remaining % ≤100%) | B (80%< substrate protein remaining % ≤100%) | B (80%< substrate protein remaining % ≤100%) | B (80%< substrate protein remaining % ≤100%) | A (0% ≤ substrate protein remaining % ≤80%) | B (80%< substrate protein remaining % ≤100%)
O=C1CCN(N2C(=O)c3ccc(CN4CCC(c5ccccc5)CC4)cc3C2=O)C(=O)N1 [GT-06803, 2-(2,4-dioxotetrahydropyrimidin-1(2H)-yl)-5-((4-phenylpiperidin-1-yl)methyl)isoindoline-1,3-dione] | B (80%< substrate protein remaining % ≤100%) | B (80%< substrate protein remaining % ≤100%) | B (80%< substrate protein remaining % ≤100%) | A (0% ≤ substrate protein remaining % ≤80%) | B (80%< substrate protein remaining % ≤100%) | B (80%< substrate protein remaining % ≤100%)
O=C1CCN(N2C(=O)c3ccc(CN4CCC(c5cccc(Br)c5)CC4)cc3C2=O)C(=O)N1 [GT-06804, 5-((4-(3-bromophenyl)piperidin-1-yl)methyl)-2-(2,4-dioxotetrahydropyrimidin-1(2H)-yl)isoindoline-1,3-dione] | B (80%< substrate protein remaining % ≤100%) | B (80%< substrate protein remaining % ≤100%) | B (80%< substrate protein remaining % ≤100%) | A (0% ≤ substrate protein remaining % ≤80%) | B (80%< substrate protein remaining % ≤100%) | B (80%< substrate protein remaining % ≤100%)
O=C1CCN(N2C(=O)c3ccc(CN4CCC(c5ccc(Br)cc5)CC4)cc3C2=O)C(=O)N1 [GT-06805, 5-((4-(4-bromophenyl)piperidin-1-yl)methyl)-2-(2,4-dioxotetrahydropyrimidin-1(2H)-yl)isoindoline-1,3-dione] | B (80%< substrate protein remaining % ≤100%) | B (80%< substrate protein remaining % ≤100%) | B (80%< substrate protein remaining % ≤100%) | A (0% ≤ substrate protein remaining % ≤80%) | B (80%< substrate protein remaining % ≤100%) | B (80%< substrate protein remaining % ≤100%)
O=C1CCN(N2C(=O)c3ccc(CN4CCC(c5ccccc5F)CC4)cc3C2=O)C(=O)N1 [GT-06877, 2-(2,4-dioxotetrahydropyrimidin-1(2H)-yl)-5-((4-(2-fluorophenyl)piperidin-1-yl)methyl)isoindoline-1,3-dione] | B (80%< substrate protein remaining % ≤100%) | B (80%< substrate protein remaining % ≤100%) | B (80%< substrate protein remaining % ≤100%) | A (0% ≤ substrate protein remaining % ≤80%) | B (80%< substrate protein remaining % ≤100%) | B (80%< substrate protein remaining % ≤100%)
O=C1CCN(N2C(=O)c3ccc(CN4CCC(c5ccc(F)cc5)CC4)cc3C2=O)C(=O)N1 [GT-06878, 2-(2,4-dioxotetrahydropyrimidin-1(2H)-yl)-5-((4-(4-fluorophenyl)piperidin-1-yl)methyl)isoindoline-1,3-dione] | A (0% ≤ substrate protein remaining % ≤80%) | B (80%< substrate protein remaining % ≤100%) | B (80%< substrate protein remaining % ≤100%) | A (0% ≤ substrate protein remaining % ≤80%) | B (80%< substrate protein remaining % ≤100%) | B (80%< substrate protein remaining % ≤100%)
O=C1CCN(N2C(=O)c3ccc(CN4CCC(c5ccccc5C(F)(F)F)CC4)cc3C2=O)C(=O)N1 [GT-06879, 2-(2,4-dioxotetrahydropyrimidin-1(2H)-yl)-5-((4-(2-(trifluoromethyl)phenyl)piperidin-1-yl)methyl)isoindoline-1,3-dione] | A (0% ≤ substrate protein remaining % ≤80%) | B (80%< substrate protein remaining % ≤100%) | B (80%< substrate protein remaining % ≤100%) | B (80%< substrate protein remaining % ≤100%) | B (80%< substrate protein remaining % ≤100%) | B (80%< substrate protein remaining % ≤100%)

From patent publication US20260356819A1, “OXOISOINDOLINYL-SUBSTITUTED […] DERIVATIVE AND USE THEREOF” (GLUETACS THERAPEUTICS (SHANGHAI) CO., LTD., priority 2023, published 2026)
